Assay [1] deals with HepG2 orthotopic xenograft. The assay is described as follows: Liver cancer orthotopic xenograft model (HepG2), 19 injections. The assay is classed as in vivo, BalB/c nude mice. The settings on record: M2 9.1 mg/kg, BI2536 1 mg/kg, 19 injections. The method, then: 5×10^6 HepG2 cells, which are a hepatocellular carcinoma cell line, were injected into the back skin of BalB/c nude mice, and when a sufficient cancer tissue was formed about 3 weeks later, the tissue was removed, uniformly cut into 1 mm^3, and transplanted into the right median lobe of the liver by excising the abdomen within 1 cm.
The doses of 9.1 mg/kg of M2 and 1 mg/kg of BI2536 were selected based on the present inventor's previous in vitro experiments on HCC cells. Administration began 7 days after cell injection, and an equivalent amount of DMSO for the highest concentration of drug was used as a solvent control for each experiment. Each drug was injected a total of 19 injections based on 5 times/week.

Another assay concerns PLK1. The assay is described as follows: PLK1 position in the cell (r-tubulin, PLK1, DAPI staining). The assay is classed as cell-based.
A further assay deals with HepG2 cells. The assay is described as follows: Cell viability after treatment (Hoechst 33342). The assay is classed as cell-based. As to conditions: HepG2, various concentrations, two treatments 48 hours apart. The procedure:
HepG2 cells, a hepatocellular carcinoma cell line, were plated with 4 to 6 replications at each hit compound concentration in a 96-well microtiter plate supplemented with a culture medium. The hit compound dissolved in DMSO was added the next day according to the design of experiments, and the number of seeded cells was determined by the cell density reaching 80% on the final day of the protocol treated as a cell control. After 24 hours of cell seeding, cells were treated with hit compounds (M2 and BI2536) at various concentrations, and 48 hours after primary treatment, the medium was aspirated and then secondary treatment was performed. After 48 hours, cell nuclei were visualized by 2.5 μM Hoechst 33342 staining at 37° C. for 30 minutes, then the medium was aspirated and washed with a fresh medium. The plate was read using Cytation™ 3 (BioTek, USA), the cell viability was analyzed, and the results were presented as a relative percentage of viable cells after treatment with the hit compound compared to the control treatment.

The test system of the next assay is HepG2 cell. The assay is described as follows: Apoptosis by annexin V-FITC / PI flow cytometry. The assay is classed as cell-based. The settings on record: HepG2, 3 days; M2 20 or 100 μM; BI2536 20 or 100 nM. The method, then:
To analyze the pattern of apoptosis by exposure to M2, HepG2 cell, a hepatocellular carcinoma cell line, were treated with 20 or 100 μM M2 and 20 or 100 nM BI2536 for 3 days. The apoptosis was detected by annexin V-fluorescein isothiocyanate (annexin V-FITC) and propidium iodide (PI) staining of necrotic and apoptosis cells. First, cells were harvested and washed once with PBS. The cells were then resuspended in a 100 μl binding buffer containing 4 μl of Annexin V (BD, 51-65874X) and PI (BD, 51-66211E). The cells were stained at 37° C. for 15 minutes in the dark and then analyzed using FACSan (BD, San Jose, Calif.). Data was analyzed using CELLQuest software (BD).

In a further assay the test system is SNU-449. The assay can be described thus: Cell cycle by flow cytometry, phospho-histone H3 (Ser10) staining. The assay is classed as cell-based. As to conditions: M2 20, 40, 80 μM, BI2536 20 nM. The procedure:
Flow cytometry equipment was used to confirm the effect on the cell cycle in the case of treatment with Compound 2 (M2). SNU-449, which is one of the liver cancer cell lines, were treated with Compound 2 (M2) at each of concentrations of 20, 40, and 80 μM after 1 day and 3 days, and were harvested after another 2 days.
Furthermore, it was intended to more specifically stain a cell population that stopped in the metaphase of cell division using a phospho-histone H3 (Ser10) antibody capable of specifically staining only the cells that stopped in the metaphase of cell division. As a positive control, cells were treated with BI2536 known as a PLK1 kinase inhibitor at 20 nM and used to observe cells in the metaphase of cell division and an increase in the G2/M phase.
Background: Flow cytometry measures light scatter and fluorescence of single cells or particles in a stream.

For assay [2], the target named is T1, PBD domain of PLK1 (PLK1-PBD protein) (Homo sapiens, UniProt P53350).
T1 construct: a 4 μM PLK1-PBD protein
T1 sequence (P53350 367-603 limits assumed): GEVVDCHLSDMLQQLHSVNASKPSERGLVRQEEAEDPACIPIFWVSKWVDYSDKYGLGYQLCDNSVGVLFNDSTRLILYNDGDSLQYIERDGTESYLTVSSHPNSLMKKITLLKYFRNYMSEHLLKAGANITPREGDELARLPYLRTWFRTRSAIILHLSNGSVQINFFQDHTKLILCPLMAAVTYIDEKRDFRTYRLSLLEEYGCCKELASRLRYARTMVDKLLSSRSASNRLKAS
The assay is described as follows: Compound screening by fluorescence polarization (FP) competition assay. The assay is classed as binding. As to conditions: FITC-labeled 1010pT peptide + PLK1-PBD; about 300 with no compound added. The method, then:
For this purpose, a fluorescence polarization competition assay was performed by mixing a conjugate of a PBD site of PLK1 purified in a solution and a peptide (FITC-labeled 1010pT (GVLSpTLI-NH2)) to which FITC fluorescence was bound with a low molecular weight compound to be screened.
More specifically, after a reaction was performed at room temperature for 30 minutes by preparing a 4 μM PLK1-PBD protein, a 10 nM peptide (FITC-labeled 1010pT (GVLSpTLI-NH2)), and a 20 μl candidate compound at each concentration and putting the respective components into a black 96-well plate for mixing, fluorescence polarization (mp) values were measured using Infinite F200 Pro (TECAN Group Ltd, Switzerland). An average value was derived by performing this experiment three times by the same method, and the excitation wavelength and the emission wavelength were set at 485 nm and 535 nm, respectively.
On the technique in general: Polarisation of emitted light reports the rotation of a fluorescent probe.

Assay [3] deals with T2, PBD of PLK1 (GST-tagged target protein) (Homo sapiens, UniProt P53350).
T2 construct: made in house
T2 sequence (P53350 367-603 limits assumed): as above
The assay is described as follows: IC50 measurement by FP assay. The assay is classed as binding. The settings on record: FITC-labeled 1010pT peptide. The procedure:
The IC50 of the compound was intended to be analyzed by performing the FP assay shown in Example 1 on the compound and the hit compound discovered by the primary and secondary compound screening and various derivatives thereof. For this purpose, a target protein to which GST-tag was bound was isolated using a GST resin, and 15 mg/ml of the pure target protein to which GST-tag was bound was obtained by finally performing gel filtration. The target protein was diluted with a reaction buffer and prepared at each of concentrations of 12 uM, 3 uM, and 1.5 uM, and an FITC-bound peptide (FITC-labeled 1010pT (GVLS-pT-LI-NH2)) stored in a brown tube was diluted with a reaction buffer and prepared at a concentration of 30 nM. Further, the compound at a concentration of 100 mM was diluted with a reaction buffer and prepared at each of 160.0 uM, 80.0 uM, 40.0 uM, 20.0 uM, 10.0 uM, 5.0 uM, 2.5 uM, 1.25 uM, 0.625 uM, 0.3125 uM, 0.15625 uM, and 0.0 uM. […] When the reaction was completed, the fluorescence polarization value was measured using Infinite F200 Pro (TECAN Group Ltd, Switzerland) after setting the excitation wavelength and the emission wavelength to 485 nm and 535 nm, respectively, and setting the G-Factor to 1.077. […] Binding curves were analyzed using Graphpad Prism (GraphPad Software, San Diego, Calif., USA).

A further assay relates to MDA-MB-468 cells. The assay is described as follows: Cancer cell growth inhibition (DAPI nuclei count), breast cancer line. The assay is classed as cell-based. The settings on record: treated 1 and 3 days after attachment. The method, then: For this purpose, experiments were performed using liver cancer, breast cancer, hematologic cancer, cervical cancer, and prostate cancer cell lines, a murine liver cancer cell line HEPA 1-6 and a breast cancer cell line MDA-MB-468 were cultured in a DMEM medium supplemented with 10% fetal bovine serum (FBS) and 1% penicillin/streptomycin, the other cell lines were cultured in a RPMI1640 medium supplemented with the same additives, and the cell lines were used in the experiment.
To examine the ability of the compound to inhibit the growth of the breast cancer cell line, the compounds was treated at each indicated μM concentration 1 and 3 days after cell attachment, and the control was treated with a 0.1% solvent (DMSO). […] After the cells were additionally rinsed once with PBS, cells stained with DAPI were photographed by Cytation 3, and the resulting images were analyzed with Gen5 software (Biotek, USA). Meanwhile, cells that grew in a floating manner without being attached to the culture plate were treated with a 4% paraformaldehyde solution, reacted at room temperature for 10 minutes to fix the cells, and then photographed in a bright field by Cytation3, and the resulting images were analyzed by Gen5 software (Biotek, USA). […]

Assay [4] has as its system JIMT1 human breast cancer cells. The assay is described as follows: Cancer cell growth inhibition, M2 variants in JIMT1. The assay is classed as cell-based. The method, then:
(§1) To examine the ability of the compound to inhibit the growth of the breast cancer cell line, the compounds was treated at each indicated μM concentration 1 and 3 days after cell attachment, and the control was treated with a 0.1% solvent (DMSO). After another two days, the cell lines that were attached to the culture plate and grew were rinsed with 1×PBS and treated with 4% paraformaldehyde at room temperature for 10 minutes to fix the cells. Then, after cells were rinsed twice with PBS, the fixed cells were treated with a 0.5% Triton X-100 solution and reacted at room temperature for 15 minutes, rinsed another three times with PBS, and then treated with a DAPI reagent at 0.5 μg/ml, and reacted at 37° C. for 10 minutes to stain the cell nuclei. After the cells were additionally rinsed once with PBS, cells stained with DAPI were photographed by Cytation 3, and the resulting images were analyzed with Gen5 software (Biotek, USA). Meanwhile, cells that grew in a floating manner without being attached to the culture plate were treated with a 4% paraformaldehyde solution, reacted at room temperature for 10 minutes to fix the cells, and then photographed in a bright field by Cytation3, and the resulting images were analyzed by Gen5 software (Biotek, USA).

For assay [5], the system named is HepG2 human liver cancer cells. The assay can be described thus: Reactivity of M2 variants in HepG2. The assay is classed as cell-based. The procedure: as §1
(§2) To analyze the ability to inhibit the growth of liver cancer cell lines, 6.6×10^3 HepG2 cells per well, 1×10^3 cells of each of Hep3B, SNU-475, and SNU-449 per well, and 2×10^3 SNU-387 cells per well were aliquoted in a 96-well plate, cultured in the same manner as described above, treated with Compound 2 (M2), Compound 3 (M4), Compound 4 (M21), Compound 5 (M23), and Compound 6 (M25), and then the ability to inhibit the growth of cells was analyzed.

Assay [6] concerns SNU449 human liver cancer cells. The assay can be described thus: Reactivity of M2 variants in SNU449. The assay is classed as cell-based. The procedure:
as §1, §2

For the compound `CC[C@@H]1C(=O)N(C)c2cnc(Nc3ccc(C(=O)NC4CCN(C)CC4)cc3OC)nc2N1C1CCCC1` [BI2536, reference compound], the “progression of the HCC xenograft calculated by the growth inhibition index” value in assay [1] is given as “suppressed the progression of the HCC xenograft”. In [1] (5 times/week), the “growth of tumor cells (macroscopic morphology, MRI)” value is reported as “the growth of tumor cells was suppressed”. For the same compound, the chromosome segregation entry in the assay with PLK1 was “abnormal chromosome segregation was observed”. In the assay on PLK1 (middle stage of cell division), the “position of PLK1” value is recorded as “did not seem to make a relatively large difference” and the “r-tubulin located in the centrosome (staining / position)” value is recorded as “did not seem to make a relatively large difference”. The cell viability entry in the assay with HepG2 cells is “the relatively less the cell viability became”. Also, in the assay with HepG2 cell, the apoptosis cells result is listed as “apoptosis cells were increased” and the “apoptosis with increasing dose” value was “apoptosis was increased in a dose-dependent manner”. Moreover, in the assay on SNU-449, the “proportion of polyploid cells” value is reported as “remarkably increased”. Further, in the assay with SNU-449 (compared to CT), the “proportion of phospho-histone H3-positive cells” value is “increase in the proportion”.
In the case of `O=C(O)c1ccc2[nH]c3nc(=O)[nH]c(=O)c-3nc2c1` [Compound 1, 2,4-Dioxo-1,2,3,4-tetrahydrobenzo[g]pteridine-7-carboxylic acid], in assay [2], the fluorescence polarization value is recorded as 180 mp. Also, the IC50 (as a rule, the midpoint of a concentration-inhibition curve) in assay [3] was roughly 25 µM.
With `O=c1nc2[nH]c3cc(Cl)ccc3nc-2c(=O)[nH]1` [Compound 3, 8-chloro-1H,2H,3H,4H-benzo[g]pteridine-2,4-dione], the number of cells entry in the assay on MDA-MB-468 cells is given as “the number of cells was remarkably reduced in proportion to the treatment concentration”.
For the compound `Cc1cc2nc3c(=O)[nH]c(=O)nc-3n(C)c2cc1C` [Compound 7, 7,8,10-trimethyl-2H,3H,4H,10H-benzo[g]pteridine-2,4-dione], the “number of cancer cells” value in assay [4] was “remarkably reduced the number of cancer cells in a dose-dependent manner”; in [6], “the number of cancer cells was remarkably reduced in a dose-dependent manner”. Besides, the “areas of liver cancer cells” value in [5] is reported as “remarkably reduced in a dose-dependent manner”.
Consider `Cc1cc2nc3c(=O)[nH]c(=O)nc-3n(C)c2cc1C=O` [Compound 8, 7,10-dimethyl-2,4-dioxo-2H,3H,4H,10H-benzo[g]pteridine-8-carbaldehyde], for which the “number of cancer cells” value in assay [4] was “remarkably reduced the number of cancer cells in a dose-dependent manner”; in [6] it was “the number of cancer cells was remarkably reduced in a dose-dependent manner”.
In the case of `Cc1cc2nc3c(=O)[nH]c(=O)nc-3n(CCC#N)c2cc1C` [Compound 10, 3-{7,8-dimethyl-2,4-dioxo-2H,3H,4H,10H-benzo[g]pteridin-10-yl}propanenitrile], in assay [6], the “number of cancer cells” value is reported as “a relatively remarkable cancer cell reduction effect did not appear”.
On the same count and under the same terms, the same measure for `Cc1cccc(OCCn2c3nc(=O)[nH]c(=O)c-3nc3cc(C(F)(F)F)ccc32)c1` [Compound 11, 10-[2-(3-methylphenoxy)ethyl]-7-(trifluoromethyl)-2H,3H,4H,10H-benzo[g]pteridine-2,4-dione]: “a relatively remarkable cancer cell reduction effect did not appear”.
For `Cc1cc2nc3c(=O)[nH]c(=O)nc-3n(C[C@H](O)[C@H](O)[C@H](O)CO)c2cc1C` [Compound 12, 7,8-Dimethyl-10-[(2S,3S,4R)-2,3,4,5-tetrahydroxypentyl]benzo[g]pteridine-2,4-dione], the “areas of liver cancer cells” value in assay [5] is on record as “relatively low reactivity appeared”. In addition, the “number of cancer cells” value in assay [6] is “a relatively remarkable cancer cell reduction effect did not appear”.
